This note sets out measurements from patent US20230203043A1, “NOVEL IMIDAZOPYRAZINE DERIVATIVES” (Hoffmann-La Roche Inc., priority 2020, published 2023).

Counter-ions that a name gives are not always drawn.

The first test has as its system Acinetobacter baumannii ATCC17961. The test can be described thus: Antimicrobial susceptibility testing: 90% growth inhibitory concentration (IC90) determination in Iso-Sensitest broth, OD600 growth. Type of test: cell-based. As to conditions: Acinetobacter baumannii, ATCC17961, 16 h, read-out: A. baumannii ATCC 17961 IC90 (uM), strain ATCC 17961, OD600 growth over 16 h. In a few lines: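 Compounds were twofold serially diluted in DMSO across 10 points (e.g. 50 to 0.097 μM final) and inoculated at ~5×10^(5) CFU/ml. Plates incubated at 35±2° C, with OD600 read every 20 minutes over 16 h. IC90 was derived from growth inhibition during logarithmic growth.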
For orientation: IC90 means the concentration at which the effect reaches the 90% level. `CCc1cc(Nc2nccn3c(-c4cn(CC#N)nc4C(F)(F)F)cnc23)ccc1C(=O)NCCCNC(=O)CCN` [Example 702, N-(3-(3-aminopropanamido)propyl)-4-((3-(1-(cyanomethyl)-3-(trifluoromethyl)-1H-pyrazol-4-yl)imidazo[1,2-a]pyrazin-8-yl)amino)-2-ethylbenzamide formate]: the IC90 stood at 0.383 µM. As to `O=C(c1ccc(Nc2nccn3c(-c4c[nH]nc4C(F)(F)F)cnc23)cc1Cl)N1CCN(C(=O)[C@@H]2CCNC[C@H]2O)CC1` [Example 454, [2-chloro-4-[[3-[3-(trifluoromethyl)-1H-pyrazol-4-yl]imidazo[1,2-a]pyrazin-8-yl]amino]phenyl]-[4-[(3S,4R)-3-hydroxypiperidine-4-carbonyl]piperazin-1-yl]methanone formate], the IC90 was 0.778 µM.

`N#CCn1cc(-c2cnc3c(Nc4ccc(C(=O)N5CCN(CC(=O)N6CCNCC6)CC5)c(Cl)c4)nccn23)c(C(F)(F)F)n1` [Example 607, 2-(4-(8-((3-chloro-4-(4-(2-oxo-2-(piperazin-1-yl)ethyl)piperazine-1-carbonyl)phenyl)amino)imidazo[1,2-a]pyrazin-3-yl)-3-(trifluoromethyl)-1H-pyrazol-1-yl)acetonitrile formate]: the IC90 is 0.878 µM.

In the case of `CCc1cc(Nc2nccn3c(-c4cn(CC#N)nc4C(F)(F)F)cnc23)ccc1C(=O)NCC(=O)NC1CC(N)C1` (stereo not shown) [Example 675, N-[2-[(3-aminocyclobutyl)amino]-2-oxo-ethyl]-4-[[3-[1-(cyanomethyl)-3-(trifluoromethyl)pyrazol-4-yl]imidazo[1,2-a]pyrazin-8-yl]amino]-2-ethyl-benzamide formate], the IC90 worked out at 0.315 µM. Same read-out and setting: to `Cc1cc(Nc2nccn3c(-c4c[nH]nc4C(F)(F)F)cnc23)ccc1C(=O)N1CCN(C(=O)[C@@H]2CCNC[C@@H]2O)CC1` [Example 461, formic acid; [4-[(3R,4R)-3-hydroxypiperidine-4-carbonyl]piperazin-1-yl]-[2-methyl-4-[[3-[3-(trifluoromethyl)-1H-pyrazol-4-yl]imidazo[1,2-a]pyrazin-8-yl]amino]phenyl]methanone] belongs 0.926 µM; to `CCc1cc(Nc2nccn3c(-c4cn(CC#N)nc4C(F)(F)F)cnc23)ccc1C(=O)NCC(=O)N1CC2(CC(N)C2)C1` [Example 508, N-[2-(6-amino-2-azaspiro[3.3]heptan-2-yl)-2-oxo-ethyl]-4-[[3-[1-(cyanomethyl)-3-(trifluoromethyl)pyrazol-4-yl]imidazo[1,2-a]pyrazin-8-yl]amino]-2-ethyl-benzamide formate], 0.198 µM.

In the case of `O=C(N[C@H]1CNC[C@@H]1O)N1CCN(C(=O)c2ccc(Nc3nccn4c(-c5c[nH]nc5C(F)(F)F)cnc34)cc2Cl)CC1` [Example 440, 4-[2-chloro-4-[[3-[3-(trifluoromethyl)-1H-pyrazol-4-yl]imidazo[1,2-a]pyrazin-8-yl]amino]benzoyl]-N-[(3S,4S)-4-hydroxypyrrolidin-3-yl]piperazine-1-carboxamide formate], the IC90 came out at 0.497 µM.

Staying with this test, now noted: Acinetobacter baumannii, ATCC17961, 16 h, strain ATCC 17961, OD600 growth over 16 h, read-out: A. baumannii ATCC 17961 IC90.
On to `NCCCCNC(=O)c1ccc(Nc2nccn3c(-c4c[nH]nc4C(F)(F)F)cnc23)cc1Cl` [Example 362, N-(4-aminobutyl)-2-chloro-4-[[3-[3-(trifluoromethyl)-1H-pyrazol-4-yl]imidazo[1,2-a]pyrazin-8-yl]amino]benzamide], for which the IC90 is 0.35 µM. Still for that read-out and setting: to `CCc1cc(Nc2nccn3c(-c4cn(CC(F)F)nc4C#N)cnc23)ccc1C(=O)NCCOCCN` [Example 832, N-(2-(2-aminoethoxy)ethyl)-4-((3-(3-cyano-1-(2,2-difluoroethyl)-1H-pyrazol-4-yl)imidazo[1,2-α]pyrazin-8-yl)amino)-2-ethylbenzamide] belongs 0.48 µM; to `NC1CCN(C(=O)c2ccc(Nc3nccn4c(-c5cn(CC(F)F)nc5C(F)(F)F)cnc34)cc2Cl)CC1` [Example 103, (4-aminopiperidin-1-yl)-[2-chloro-4-[[3-[1-(2,2-difluoroethyl)-3-(trifluoromethyl)pyrazol-4-yl]imidazo[1,2-a]pyrazin-8-yl]amino]phenyl] methanone], 0.195 µM.

On to `O=C(NC1CC(NC(=O)[C@@H]2C[C@@H](O)CN2)C1)c1ccc(Nc2nccn3c(-c4c[nH]nc4C(F)(F)F)cnc23)cc1Cl` (stereo partly drawn) [Example 370, (2S,4R)-N-[3-[[2-chloro-4-[[3-[3-(trifluoromethyl)-1H-pyrazol-4-yl]imidazo[1,2-a]pyrazin-8-yl]amino]benzoyl]amino]cyclobutyl]-4-hydroxypyrrolidine-2-carboxamide], for which the IC90 is 0.177 µM. As for `CCc1cc(Nc2nccn3c(-c4cn(CCF)nc4C(F)(F)F)cnc23)ccc1C(=O)NCCCN` [Example 56, N-(3-aminopropyl)-2-ethyl-4-[[3-[1-(2-fluoroethyl)-3-(trifluoromethyl)pyrazol-4-yl]imidazo[1,2-a]pyrazin-8-yl]amino]benzamide], the IC90 worked out at 0.194 µM. Same read-out and setting: the same measure for `CCc1cc(Nc2nccn3c(-c4cn(CCF)nc4C(F)F)cnc23)ccc1C(=O)N1CCN(C(=O)[C@H](C)N)CC1` [Example 779, (S)-2-amino-1-(4-(4-((3-(3-(difluoromethyl)-1-(2-fluoroethyl)-1H-pyrazol-4-yl)imidazo[1,2-a]pyrazin-8-yl)amino)-2-ethylbenzoyl)piperazin-1-yl)propan-1-one]: 1.03 µM; for `CCc1cc(Nc2nccn3c(-c4cn(CC#N)nc4C(F)F)cnc23)ccc1C(=O)NCCOCCN` [Example 18, N-[2-(2-aminoethoxy)ethyl]-4-[[3-[1-(cyanomethyl)-3-(difluoromethyl)pyrazol-4-yl]imidazo[1,2-a]pyrazin-8-yl]amino]-2-ethylbenzamide]: 0.26 µM; for `O=C(NC1CCC(NC(=O)[C@@H]2C[C@@H](O)CN2)CC1)c1ccc(Nc2nccn3c(-c4c[nH]nc4C(F)(F)F)cnc23)cc1Cl` (stereo partly drawn) [Example 374, (2S,4R)-N-[4-[[2-chloro-4-[[3-[3-(trifluoromethyl)-1H-pyrazol-4-yl]imidazo[1,2-a]pyrazin-8-yl]amino]benzoyl]amino]cyclohexyl]-4-hydroxypyrrolidine-2-carboxamide]: 0.237 µM. The same measure, in the same setting: the same measure for `O=C(c1ccc(Nc2nccn3c(-c4c[nH]nc4C(F)(F)F)cnc23)cc1Cl)N1CCN(C(=O)[C@H]2CCNC2)CC1` [Example 208, [2-chloro-4-[[3-[3-(trifluoromethyl)-1H-pyrazol-4-yl]imidazo[1,2-a]pyrazin-8-yl]amino]phenyl]-[4-[(3S)-pyrrolidine-3-carbonyl]piperazin-1-yl]methanone]: 0.232 µM; for `CN(C)C(=O)c1ccc(Nc2nccn3c(-c4c[nH]nc4C(F)(F)F)cnc23)cc1Cl` [Example 402, 2-chloro-N,N-dimethyl-4-[[3-[3-(trifluoromethyl)-1H-pyrazol-4-yl]imidazo[1,2-a]pyrazin-8-yl]amino]benzamide]: 0.384 µM; for `Cc1cc(Nc2nccn3c(-c4c[nH]nc4C(F)(F)F)cnc23)cc(F)c1C(=O)N1CCNCC1` [Example 86, [2-fluoro-6-methyl-4-[[3-[3-(trifluoromethyl)-1H-pyrazol-4-yl]imidazo[1,2-a]pyrazin-8-yl]amino]phenyl]-piperazin-1-ylmethanone]: 3.38 µM. For `CCc1cc(Nc2nccn3c(-c4cn(CC(F)F)nc4C(F)F)cnc23)ccc1C(=O)N1CCN(C(=O)[C@H](C)N)CC1` [Example 775, (S)-2-amino-1-(4-(4-((3-(1-(2,2-difluoroethyl)-3-(difluoromethyl)-1H-pyrazol-4-yl)imidazo[1,2-a]pyrazin-8-yl)amino)-2-ethylbenzoyl)piperazin-1-yl)propan-1-one], the IC90 stood at 0.988 µM. On the same count and under the same terms, the same measure for `C=CCn1cc(-c2cnc3c(Nc4ccc(C(=O)N[C@@H](C)CN)c(CC)c4)nccn23)c(C(F)(F)F)n1` [Example 63, N-[(2S)-1-aminopropan-2-yl]-2-ethyl-4-[[3-[1-prop-2-enyl-3-(trifluoromethyl)pyrazol-4-yl]imidazo[1,2-a]pyrazin-8-yl]amino]benzamide]: 0.27 µM. The same measure, in the same setting: to `Cc1cc(Nc2nccn3c(-c4cn(CC5CC5)nc4C(F)(F)F)cnc23)ccc1S(C)(=O)=NCCCN` (stereo not drawn) [Example 596, N-[4-[N-(3-aminopropyl)-S-methyl-sulfonimidoyl]-3-methyl-phenyl]-3-[1-(cyclopropylmethyl)-3-(trifluoromethyl)pyrazol-4-yl]imidazo[1,2-α]pyrazin-8-amine formate] belongs 0.131 µM; to `O=C(c1ccc(Nc2nccn3c(-c4cn(Cc5cc[nH]n5)nc4C(F)(F)F)cnc23)cc1Cl)N1CCNCC1` [Example 177, [2-chloro-4-[[3-[1-(1H-pyrazol-3-ylmethyl)-3-(trifluoromethyl)pyrazol-4-yl]imidazo[1,2-a]pyrazin-8-yl]amino]phenyl]-piperazin-1-ylmethanone], 0.11 µM.

For the compound `CCc1cc(Nc2nccn3c(-c4cn(CC(F)F)nc4C(F)(F)F)cnc23)ccc1C(=O)N1CCC(CN)CC1` [Example 58, [4-(aminomethyl)piperidin-1-yl]-[4-[[3-[1-(2,2-difluoroethyl)-3-(trifluoromethyl)pyrazol-4-yl]imidazo[1,2-a]pyrazin-8-yl]amino]-2-ethylphenyl] methanone], the IC90 came out at 0.209 µM. For the compound `C#CCNC(=O)c1c(C)cc(Nc2nccn3c(-c4cn(CC#N)nc4C(F)(F)F)cnc23)cc1F` [Example 4, 4-[[3-[1-(cyanomethyl)-3-(trifluoromethyl)pyrazol-4-yl]imidazo[1,2-a]pyrazin-8-yl]amino]-2-fluoro-6-methyl-N-prop-2-ynylbenzamide], the IC90 is 0.132 µM.

Still in this test, the particulars now being: strain ATCC 17961, OD600 growth over 16 h, read-out: A. baumannii ATCC 17961 IC90.
Regarding `C=CCn1cc(-c2cnc3c(Nc4ccc(C(=O)NCCOC[C@@H](C)N)c(CC)c4)nccn23)c(C(F)(F)F)n1` [Example 148, N-[2-[(2R)-2-aminopropoxy]ethyl]-2-ethyl-4-[[3-[1-prop-2-enyl-3-(trifluoromethyl)pyrazol-4-yl]imidazo[1,2-a]pyrazin-8-yl]amino]benzamide], the IC90 is 0.084 µM.
